Assays:
[1] = biological target: T1, Mitogen-activated protein kinase kinase kinase kinase 3 (Homo sapiens) (UniProt Q8IVH8); test: Selectivity interaction (KinomeScan (DiscoverX)) EUB0001049a MAP4K3; details: at 1 µM
T1 sequence (whole entry): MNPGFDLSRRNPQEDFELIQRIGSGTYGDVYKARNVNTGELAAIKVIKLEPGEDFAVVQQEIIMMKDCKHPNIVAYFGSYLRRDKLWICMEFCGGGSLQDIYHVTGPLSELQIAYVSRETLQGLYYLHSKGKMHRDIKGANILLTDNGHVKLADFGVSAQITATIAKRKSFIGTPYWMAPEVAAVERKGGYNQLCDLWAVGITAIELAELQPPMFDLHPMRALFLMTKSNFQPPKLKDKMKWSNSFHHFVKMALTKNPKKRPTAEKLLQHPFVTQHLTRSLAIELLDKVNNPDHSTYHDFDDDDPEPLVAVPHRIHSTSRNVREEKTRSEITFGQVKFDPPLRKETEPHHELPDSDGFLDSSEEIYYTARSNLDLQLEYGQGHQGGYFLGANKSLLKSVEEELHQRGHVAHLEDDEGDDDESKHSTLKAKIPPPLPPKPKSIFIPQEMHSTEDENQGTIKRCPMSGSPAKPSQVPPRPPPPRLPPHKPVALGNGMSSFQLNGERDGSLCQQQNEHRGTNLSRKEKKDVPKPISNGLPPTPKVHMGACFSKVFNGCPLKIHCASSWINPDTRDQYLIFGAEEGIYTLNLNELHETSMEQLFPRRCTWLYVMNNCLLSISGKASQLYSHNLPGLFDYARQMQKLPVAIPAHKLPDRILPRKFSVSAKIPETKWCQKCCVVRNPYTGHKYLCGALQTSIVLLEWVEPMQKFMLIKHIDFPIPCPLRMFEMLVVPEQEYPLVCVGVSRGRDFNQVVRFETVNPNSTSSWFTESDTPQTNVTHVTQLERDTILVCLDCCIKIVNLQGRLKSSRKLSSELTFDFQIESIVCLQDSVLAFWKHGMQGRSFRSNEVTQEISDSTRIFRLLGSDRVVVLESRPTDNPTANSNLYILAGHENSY

[2] = biological target: T2, Ankyrin repeat and protein kinase domain-containing protein 1 (Homo sapiens) (UniProt Q8NFD2); details: at 10 µM
T2 sequence (whole entry): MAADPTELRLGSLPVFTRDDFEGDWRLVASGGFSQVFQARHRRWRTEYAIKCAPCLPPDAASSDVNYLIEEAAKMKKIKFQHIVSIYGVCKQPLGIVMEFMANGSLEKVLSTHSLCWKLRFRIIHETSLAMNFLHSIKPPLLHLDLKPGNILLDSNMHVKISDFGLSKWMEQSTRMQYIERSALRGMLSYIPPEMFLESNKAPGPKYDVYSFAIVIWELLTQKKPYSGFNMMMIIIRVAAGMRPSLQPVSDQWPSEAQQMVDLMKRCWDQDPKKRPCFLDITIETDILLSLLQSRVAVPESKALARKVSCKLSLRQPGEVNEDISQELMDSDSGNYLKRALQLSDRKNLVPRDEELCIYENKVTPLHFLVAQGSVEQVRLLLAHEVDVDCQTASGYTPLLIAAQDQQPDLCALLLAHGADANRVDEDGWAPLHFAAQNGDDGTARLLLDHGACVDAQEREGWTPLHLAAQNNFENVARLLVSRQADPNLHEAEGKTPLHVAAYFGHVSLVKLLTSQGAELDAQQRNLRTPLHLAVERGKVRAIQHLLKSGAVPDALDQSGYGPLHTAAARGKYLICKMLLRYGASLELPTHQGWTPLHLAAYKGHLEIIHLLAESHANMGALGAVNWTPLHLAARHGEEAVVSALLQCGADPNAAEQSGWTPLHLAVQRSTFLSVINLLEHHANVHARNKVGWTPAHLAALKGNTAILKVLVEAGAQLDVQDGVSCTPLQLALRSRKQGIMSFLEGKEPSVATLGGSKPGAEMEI

[3] = biological target: Casein kinase I isoform gamma-2 (Homo sapiens) (UniProt P78368); test: Selectivity interaction (KinomeScan (DiscoverX)) EUB0000092b CSNK1G2; details: at 10 µM
Sequence of Casein kinase I isoform gamma-2 (Homo sapiens) (P78368 whole entry, looked up, canonical isoform): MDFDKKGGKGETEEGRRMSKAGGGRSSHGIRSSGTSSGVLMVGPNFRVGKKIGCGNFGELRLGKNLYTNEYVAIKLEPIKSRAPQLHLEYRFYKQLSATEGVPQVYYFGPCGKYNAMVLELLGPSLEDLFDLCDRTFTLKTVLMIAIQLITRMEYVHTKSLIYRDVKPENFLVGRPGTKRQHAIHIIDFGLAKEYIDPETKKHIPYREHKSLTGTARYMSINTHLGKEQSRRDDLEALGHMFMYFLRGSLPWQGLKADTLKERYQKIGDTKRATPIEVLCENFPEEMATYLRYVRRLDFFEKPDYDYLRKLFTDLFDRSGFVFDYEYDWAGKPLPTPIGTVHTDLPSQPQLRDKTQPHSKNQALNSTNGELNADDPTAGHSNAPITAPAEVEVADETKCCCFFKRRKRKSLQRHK

[4] = biological target: T3, Serine/threonine-protein kinase BRSK1 (Homo sapiens) (UniProt Q8TDC3); test: Selectivity interaction (KinomeScan (DiscoverX)) EUB0001619a BRSK1; details: at 1 µM
T3 sequence (whole entry): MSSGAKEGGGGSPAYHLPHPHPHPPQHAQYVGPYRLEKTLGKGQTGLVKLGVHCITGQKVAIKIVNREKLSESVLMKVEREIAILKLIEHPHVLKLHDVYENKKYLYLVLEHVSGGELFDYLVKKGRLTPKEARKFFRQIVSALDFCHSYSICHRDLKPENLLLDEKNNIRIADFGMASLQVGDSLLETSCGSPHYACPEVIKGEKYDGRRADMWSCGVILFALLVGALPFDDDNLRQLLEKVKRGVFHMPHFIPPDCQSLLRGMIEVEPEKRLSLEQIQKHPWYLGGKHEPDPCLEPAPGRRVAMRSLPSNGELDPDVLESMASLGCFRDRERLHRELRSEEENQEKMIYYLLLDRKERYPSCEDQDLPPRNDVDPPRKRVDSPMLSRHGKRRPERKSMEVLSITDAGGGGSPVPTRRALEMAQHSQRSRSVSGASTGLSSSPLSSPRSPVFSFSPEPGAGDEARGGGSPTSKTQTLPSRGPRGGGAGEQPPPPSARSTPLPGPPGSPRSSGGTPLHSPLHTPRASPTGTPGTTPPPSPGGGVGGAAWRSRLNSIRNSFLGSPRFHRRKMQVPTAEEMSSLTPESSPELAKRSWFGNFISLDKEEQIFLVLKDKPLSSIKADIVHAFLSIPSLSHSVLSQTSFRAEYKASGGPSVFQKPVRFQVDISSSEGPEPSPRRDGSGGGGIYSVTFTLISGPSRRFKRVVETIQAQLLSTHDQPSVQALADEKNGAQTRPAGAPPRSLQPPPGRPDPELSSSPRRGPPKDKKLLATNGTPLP

[5] = biological target: Misshapen-like kinase 1 (Homo sapiens, UniProt Q8N4C8); test: Selectivity interaction (ActivX KiNativ screen (ex vivo kinase selectivity in human PBMCs)) EUB0001619a MINK1; format: cell-based; details: PBMC, at 1 µM
Sequence of Misshapen-like kinase 1 (Q8N4C8 whole entry, looked up): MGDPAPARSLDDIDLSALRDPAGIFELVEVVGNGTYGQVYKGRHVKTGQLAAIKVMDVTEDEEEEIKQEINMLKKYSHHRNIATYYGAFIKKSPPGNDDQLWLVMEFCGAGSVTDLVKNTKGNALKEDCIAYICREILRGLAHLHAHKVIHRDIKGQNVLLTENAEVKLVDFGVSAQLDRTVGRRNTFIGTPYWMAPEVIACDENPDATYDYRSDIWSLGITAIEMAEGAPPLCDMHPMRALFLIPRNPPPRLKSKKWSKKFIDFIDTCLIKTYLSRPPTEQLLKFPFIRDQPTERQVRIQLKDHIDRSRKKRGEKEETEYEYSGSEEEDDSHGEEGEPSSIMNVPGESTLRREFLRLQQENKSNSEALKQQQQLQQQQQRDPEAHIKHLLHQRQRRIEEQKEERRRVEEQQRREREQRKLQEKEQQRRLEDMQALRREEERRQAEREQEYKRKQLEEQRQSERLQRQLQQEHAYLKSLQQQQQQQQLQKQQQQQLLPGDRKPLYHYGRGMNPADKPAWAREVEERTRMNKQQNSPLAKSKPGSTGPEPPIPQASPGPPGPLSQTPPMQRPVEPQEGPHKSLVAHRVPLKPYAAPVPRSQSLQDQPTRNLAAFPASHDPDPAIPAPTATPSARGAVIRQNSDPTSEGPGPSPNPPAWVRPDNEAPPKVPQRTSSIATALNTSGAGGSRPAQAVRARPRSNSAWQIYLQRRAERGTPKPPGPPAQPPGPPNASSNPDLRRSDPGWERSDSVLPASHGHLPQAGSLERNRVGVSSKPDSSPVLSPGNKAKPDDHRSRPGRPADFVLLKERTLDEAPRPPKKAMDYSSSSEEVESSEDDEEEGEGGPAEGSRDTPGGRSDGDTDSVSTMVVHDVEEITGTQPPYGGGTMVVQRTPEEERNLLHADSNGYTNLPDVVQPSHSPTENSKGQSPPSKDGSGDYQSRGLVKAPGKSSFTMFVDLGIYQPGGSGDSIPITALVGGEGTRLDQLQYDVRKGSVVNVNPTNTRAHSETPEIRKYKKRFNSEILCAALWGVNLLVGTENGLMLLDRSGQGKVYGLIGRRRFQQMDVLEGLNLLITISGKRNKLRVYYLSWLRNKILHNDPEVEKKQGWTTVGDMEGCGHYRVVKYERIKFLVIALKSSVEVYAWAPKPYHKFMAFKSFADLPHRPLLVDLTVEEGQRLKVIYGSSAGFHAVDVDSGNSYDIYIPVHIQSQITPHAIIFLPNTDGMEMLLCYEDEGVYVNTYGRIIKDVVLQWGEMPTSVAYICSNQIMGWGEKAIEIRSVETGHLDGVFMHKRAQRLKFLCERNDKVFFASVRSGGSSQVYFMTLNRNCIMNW

## COc1cc(Nc2nc(C)cc(-c3cnn4nc(OC)ccc34)n2)cc(C(F)(F)F)c1
[1]
  % of control: 100%

## COCC(=O)NC/C=C/c1ccc2ncnc(Nc3ccc(Oc4ccc(C)nc4)c(C)c3)c2c1 [CP-724714]
[2]
  % of control: 60%

## CCC(=O)N1CCN(c2ccc(-n3c(=O)ccc4cnc5ccc(-c6cnc7ccccc7c6)cc5c43)cc2C(F)(F)F)CC1
[3]
  % of control: 100%

## N#Cc1cccc(-c2c[nH]c3ncnc(N4CCOCC4)c23)c1
[4]
  % of control: 100%
[5]
  % of inhibition: 15%
